Measured values: US4942234A, “Isothiazolone 1,1-dioxide derivatives with psychotropic activity” (American Home Products Corporation, priority 1989, dated 1990)
Structures can show the parent of a compound that is named as a salt.

What was measured:
[1] = tested on: conditioned avoidance response; assay: conditioned avoidance (shelf-jump response) test; type: in vivo, male CD rats; conditions: rats; for Active at: i.p.
Description: A test designed to determine the potential antipsychotic activity of the compounds of the invention is the conditioned avoidance (shelf-jump response) test.
This test is carried out as follows:
Male CD rats (Charles River) maintained at approximately 400-450 gm body weight are used. […] A moveable wall, controlled by a motor, determines whether the rat has access to the shelf at any time during the experiment. The experimental chamber also contains a house light and sonalert. A steel grid floor in the main chamber is wired for presentation of electric shock. Each trial consists of a fifteen-second warning tone (conditioned stimulus), continuing for an additional fifteen seconds accompanied by electric shock (unconditioned stimulus). A response (jumping onto the exposed shelf of the upper chamber) occurring during the initial fifteen-second warning tone is considered an avoidance response, while a response occurring during shock delivery is considered an escape response. Trials are presented on a fixed interval schedule of one minute. The session consists of thirty-six trials. Animals are run twice weekly with control sessions always preceding a drug run, and with at least one day intervening. Compounds are administered i.p. or p.o. at appropriate pre-treatment times to a minimum of five rats at each dose level over a range of doses.
The following experimental parameters are recorded by computer: (1) the number of avoidance responses, (2) the number of escape responses, and (3) the number of trials in which no response occurred.
Response counts are summed over all subjects at a given dose. […] This number is expressed as a percentage of the total trials. Control performance is arbitrarily assigned a value of 100% for avoidance responding and the dose calculated to produce a 50% block in avoidance responding (AB50) is obtained from a dose-effect regression line fitted by the method of least squares. Potential antipsychotic compounds suppress avoidance responding and increase escape responding.

[2] = target: limbic D-2 dopamine receptor (Rattus norvegicus, UniProt P61169); assay: inhibition of limbic D-2 dopamine receptor binding (3H-spiroperidol); conditions: read-out: Limbic D-2 Binding Inhibition, % inhibition at 1 μM
Sequence of limbic D-2 dopamine receptor (P61169 whole entry): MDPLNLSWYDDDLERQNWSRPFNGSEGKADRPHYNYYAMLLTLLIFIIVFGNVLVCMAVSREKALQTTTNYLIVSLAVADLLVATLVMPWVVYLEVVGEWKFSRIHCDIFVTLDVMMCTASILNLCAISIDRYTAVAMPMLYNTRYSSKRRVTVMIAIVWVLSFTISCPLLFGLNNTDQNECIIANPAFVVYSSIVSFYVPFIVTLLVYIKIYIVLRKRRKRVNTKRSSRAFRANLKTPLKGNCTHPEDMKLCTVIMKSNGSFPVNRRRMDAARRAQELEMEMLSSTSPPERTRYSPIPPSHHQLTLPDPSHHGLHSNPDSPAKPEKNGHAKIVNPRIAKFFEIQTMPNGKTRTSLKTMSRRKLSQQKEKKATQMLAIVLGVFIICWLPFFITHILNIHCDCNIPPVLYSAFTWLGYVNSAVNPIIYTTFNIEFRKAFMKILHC
Description: This in vitro assay measures the ability of the compounds tested to bind to the dopamine receptor sites.
The assay is carried out as follows:
Several rats are decapitated and the brains are rapidly removed. Limbic brain tissue (nucleus accumbens, septal area, olfactory tubercle) is dissected and homogenized on ice in 9 volumes of buffer (50 mM Tris-HCl, 120 mM NaCl, 5 mM KCl, 1 mM CaCl2, 1 mM MgCl2, 0.1% L-ascorbic acid, 10 μM pargyline HCl, pH 7.1) using a Polytron homogenizer at setting 5 for three 15-sec bursts. The homogenate is then diluted 4-fold with buffer and centrifuged at 30,000×g for 20 min, and the supernatant is discarded. The pellet is resuspended in the same volume of buffer and recentrifuged as before, again discarding the supernatant. This pellet is then resuspended in the same volume of buffer used in the homogenization, and the protein content of this preparation is assayed by the Lowry method. The homogenate is stored frozen at -70° C. until use.
At the end of the incubation, 3 ml of cold 50 mM Tris-HCl, pH 7.7, are added to each tube, and the contents are rapidly vacuum-filtered through Whatman GF/B glass-fiber filters. The filters are then rapidly washed 3 times with 3 ml of the same buffer, placed in scintillation vials, and shaken for 15 min with 10 ml of Hydrofluor (National Diagnostics) scintillation cocktail. The vials are then counted in a Packard 460CD scintillation counter.
Specific binding is defined as total binding less binding in the presence of 1 μM (+)butaclamol. Binding in the presence of various concentrations of test drug is expressed as a per cent of specific binding when no drug is present.

[3] = tested on: apomorphine-induced stereotyped behavior (in vivo dopamine receptor blocking activity); conditions: i.p., mice; inactivity taken as low potential for extrapyramidal side effects

Row | SMILES | Active at [1] [mg/kg] | inhibition at 1 µM [2] [%] | ED50 ([1]; Rattus norvegicus, ip, read-out: AB50 (50% block in avoidance responding)) [mg/kg] | activity in apomorphine-induced stereotyped behavior assay [3]
1 | CC1=C(C)CC2C(C1)C(=O)N(CCCCc1ccncc1)S2(=O)=O.Cl (stereo not drawn) [Example 5, 3a,4,7,7a-Tetrahydro-5,6-dimethyl-2-[4-(4-pyridinyl)butyl]-1,2-benzisothiazol-3(2H)-one 1,1-dioxide, hydrochloride] | 40 | 56 |  | 
2 | O=C1CC2(CCCC2)CC(=O)N1CCCCN1CCN(c2ncccn2)CC1 [Buspirone, 8-[4-[4-(2-pyrimidinyl)-1-piperazinyl]butyl]-8-azaspiro[4.5]decane-7,9-dione, reference compound] |  |  | 9.44 | inactive
3 | Cl.O=C1C2C3CCC(O3)C2S(=O)(=O)N1CCCCc1ccncc1 (stereo not drawn) [Example 1, Hexahydro-2-[4-(4-pyridinyl)butyl]-4,7-epoxy-1,2-benzisothiazol-3(2H)-one 1,1-dioxide, hydrochloride] | 40 | 3 |  | 
4 | O=c1c2ccccc2[s+]([O-])n1CCCCc1ccncc1 (stereo not drawn) [Example 7, 2-[4-(4-Pyridinyl)butyl]-1,2-benzisothiazol-3(2H)-one 1-oxide, hydrochloride] |  | 14 |  | 
5 | O=C1C2C3CCC(O3)C2S(=O)(=O)N1CCCCC1CCN(c2ncccn2)CC1 (stereo not drawn) [Example 2, Hexahydro-2-[4-[1-(2-pyrimidinyl)-4-piperidinyl]butyl]-4,7-epoxy-1,2-benzisothiazol-3(2H)-one 1,1-dioxide, hydrochloride, monohydrate] |  | 6 |  | 
6 | O=C1C2C3CCC(O3)C2S(=O)(=O)N1CCCCC1CCN(c2cncc(Cl)n2)CC1 (stereo not drawn) [Example 4, Hexahydro-2-[4-[1-(6-chloro-2-pyrazinyl)-4-piperidinyl]butyl]-4,7-epoxy-1,2-benzisothiazol-3(2H)-one 1,1-dioxide, hydrochloride, hydrate] |  | 7 |  | 
7 | O=C1C2C3CCC(O3)C2S(=O)(=O)N1CCCCC1CCN(c2cnccn2)CC1 (stereo not drawn) [Example 6, Hexahydro-2-[4-[1-(2-pyrazinyl)-4-piperidinyl]butyl]-4,7-epoxy-1,2-benzisothiazol-3(2H)-one 1,1-dioxide, hydrochloride, hemihydrate] |  | 6 |  | 
8 | Cl.O=C1C2C3C=CC(C3)C2S(=O)(=O)N1CCCCc1ccncc1 (stereo not drawn) [Example 3, 3a,4,7,7a-Tetrahydro-2-[4-(4-pyridinyl)butyl]-4,7-methano-1,2-benzisothiazol-3(2H)-one 1,1-dioxide, hydrochloride] | 40 | 1 |  | 
